Assay results published in ChEMBL document CHEMBL1156829 (Proc Natl Acad Sci U S A, 2008).
pEC50: −log10 of the molar value.

Legend:
Plasmodium falciparum [1] = test: NOVARTIS: Inhibition of Plasmodium falciparum 3D7 (drug-susceptible) proliferation in erythrocyte-based infection assay; type: functional, organism-based; conditions: Plasmodium falciparum, 3D7
Plasmodium falciparum [2] = test: NOVARTIS: Inhibition of Plasmodium falciparum W2 (drug-resistant) proliferation in erythrocyte-based infection assay; type: functional, organism-based; conditions: for pEC50: Plasmodium falciparum, W2, read-out: EC50
[3] = NOVARTIS: Cytotoxicity against human hepatocellular carcinoma cell line (Huh7); type: toxicity, cell-based, Huh-7; conditions: Huh7 cells (hepatocellular carcinoma cell line)

COc1cccc(-c2ccc(O)c(CNCC3CCCCC3)c2)n1
pEC50 (Plasmodium falciparum [1]): 7.23
pEC50 (Plasmodium falciparum [2]): 7.75
CC50 [3]: 46600 nM

Cc1ccc(NC(=O)c2sc3nc4c(c(-c5ccc(C)cc5)c3c2N)CCC4)cc1
pEC50 (Plasmodium falciparum [1]): 5.55
pEC50 (Plasmodium falciparum [2]): 5.05
CC50 [3]: > 100000 nM

O=C(NCc1ccccc1)c1cnc(NCCCN2CCCC2)nc1NCC1CCCCC1
pEC50 (Plasmodium falciparum [1]): 6.13
pEC50 (Plasmodium falciparum [2]): < 5.90
CC50 [3]: > 10000 nM

COC(=O)c1sc2nc(CN3CCC(C)CC3)ccc2c1NC(=O)c1ccc(C)s1
pEC50 (Plasmodium falciparum [1]): 5.01
EC50 (Plasmodium falciparum [2]): No fit
CC50 [3]: > 100000 nM

COc1cccc(OC)c1C(=O)Oc1cccc2ccc(C)nc12
pEC50 (Plasmodium falciparum [1]): < 5.90
pEC50 (Plasmodium falciparum [2]): 6.10
CC50 [3]: > 10000 nM

CC[n+]1c(C=Cc2ccc(OC)cc2)ccc2ccccc21
pEC50 (Plasmodium falciparum [1]): 6.16
pEC50 (Plasmodium falciparum [2]): 5.83
CC50 [3]: 10300 nM

CCOC(=O)c1cccc(NC(=O)CCn2nc(C)c3c(C)n(-c4ccccc4)nc3c2=O)c1
pEC50 (Plasmodium falciparum [1]): 5.51
pEC50 (Plasmodium falciparum [2]): 5.37
CC50 [3]: > 100000 nM

N#Cc1c(N)nc(SCC(=O)c2ccc(Cl)cc2)c(C#N)c1-c1ccco1
pEC50 (Plasmodium falciparum [1]): 5.64
pEC50 (Plasmodium falciparum [2]): 6.23
CC50 [3]: > 100000 nM

Cc1ccc(-c2cn3ccccc3[n+]2CC(=O)c2ccc(Cl)cc2)cc1[N+](=O)[O-]
pEC50 (Plasmodium falciparum [1]): 6.43
pEC50 (Plasmodium falciparum [2]): 6.30
CC50 [3]: > 10000 nM

Cc1ccc2ccc3ccc(C)nc3c2n1 [NEOCUPROINE]
pEC50 (Plasmodium falciparum [1]): 7.01
pEC50 (Plasmodium falciparum [2]): 7.61
CC50 [3]: > 100000 nM

CC1CCN(C(=O)C2CCCN(S(=O)(=O)c3ccc4[nH]c(-c5ccccc5)nc4c3)C2)CC1 (centres undefined)
pEC50 (Plasmodium falciparum [1]): < 4.90
pEC50 (Plasmodium falciparum [2]): 5.22
CC50 [3]: > 100000 nM

C[n+]1ccc(C=Cc2ccc(Br)cc2)cc1
pEC50 (Plasmodium falciparum [1]): 6.20
pEC50 (Plasmodium falciparum [2]): 6.69
CC50 [3]: > 100000 nM

Cc1nc(-c2ccccn2)nc(NCCc2ccccc2)c1Cl
pEC50 (Plasmodium falciparum [1]): 5.90
pEC50 (Plasmodium falciparum [2]): 5.82
CC50 [3]: > 10000 nM

Cc1cc(C)c2c(c1)OC(N)(C(Cl)(Cl)Cl)CC2=O (centres undefined)
pEC50 (Plasmodium falciparum [1]): 6.36
pEC50 (Plasmodium falciparum [2]): 6.58
CC50 [3]: > 100000 nM

O=C(c1ccco1)N1CCN(c2ccc([N+](=O)[O-])c(NC3CC3)c2)CC1
pEC50 (Plasmodium falciparum [1]): 7.00
pEC50 (Plasmodium falciparum [2]): 7.35
CC50 [3]: > 100000 nM

c1cc(NCc2ccc3c(c2)OCO3)n2ncc(-c3ccoc3)c2n1
pEC50 (Plasmodium falciparum [1]): < 5.90
pEC50 (Plasmodium falciparum [2]): < 5.99
CC50 [3]: > 10000 nM

O=C(O)CSc1nc2c(ccc3nsnc32)[nH]1
pEC50 (Plasmodium falciparum [1]): < 6.02
pEC50 (Plasmodium falciparum [2]): < 5.84
CC50 [3]: > 10000 nM

Clc1ccc(-c2c[n+](Cc3ccc(Cl)c(Cl)c3)c3n2CCC3)cc1
pEC50 (Plasmodium falciparum [1]): 6.35
pEC50 (Plasmodium falciparum [2]): 6.21
CC50 [3]: > 93600 nM

COc1cc(C2CC(=O)NC(C)=C2C(=O)OC(C)C)c(OC)cc1Br (centres undefined)
pEC50 (Plasmodium falciparum [1]): 5.99
pEC50 (Plasmodium falciparum [2]): 6.62
CC50 [3]: > 100000 nM

O=C1c2ccccc2C(=O)C12C(c1ccc(Br)cc1)N(c1ccccc1)C1(C(=O)c3ccccc3C1=O)C2c1ccc(Br)cc1 (centres undefined)
pEC50 (Plasmodium falciparum [1]): 6.29
pEC50 (Plasmodium falciparum [2]): < 6.04
CC50 [3]: > 10000 nM

CCN(CC)c1cc2oc3cc(=[N+](CC)CC)ccc-3nc2c2ccccc12
pEC50 (Plasmodium falciparum [1]): 6.06
pEC50 (Plasmodium falciparum [2]): 6.08
CC50 [3]: 39800 nM

COc1ccc(SC2CCN(C3CCOCC3)CC2)cc1
pEC50 (Plasmodium falciparum [1]): < 5.83
pEC50 (Plasmodium falciparum [2]): 6.45
CC50 [3]: 240 nM

Cc1ccc2c(c1)N(CC(=O)NC1CCCCC1C)C(=O)CO2 (centres undefined)
pEC50 (Plasmodium falciparum [1]): 5.70
pEC50 (Plasmodium falciparum [2]): < 6.09
CC50 [3]: > 10000 nM

CC(=O)NCCc1ccc(O)cc1
pEC50 (Plasmodium falciparum [1]): < 5.78
pEC50 (Plasmodium falciparum [2]): > 7.86
CC50 [3]: > 10000 nM

CCCN(CCC)S(=O)(=O)c1ccc(C(=O)Nc2ccccc2C(=O)Oc2ccc3c(c2)c(C(=O)OCC)c(C)n3-c2ccccc2)cc1
pEC50 (Plasmodium falciparum [1]): 6.14
pEC50 (Plasmodium falciparum [2]): 6.13
CC50 [3]: > 100000 nM

CCCCCc1ccc(-c2ccc(/C(C=[N+](C)C)=C\N(C)C)cc2)cc1
pEC50 (Plasmodium falciparum [1]): 6.22
pEC50 (Plasmodium falciparum [2]): 5.98
CC50 [3]: > 10000 nM

COc1cccc(NC(=O)c2ccc(NCCCN3CCC(C)CC3)c([N+](=O)[O-])c2)c1
pEC50 (Plasmodium falciparum [1]): 6.53
pEC50 (Plasmodium falciparum [2]): 6.28
CC50 [3]: 18700 nM

COc1cccc(CN2CCN(C3CCCC(C)C3)CC2)c1OC (centres undefined)
pEC50 (Plasmodium falciparum [1]): < 4.90
pEC50 (Plasmodium falciparum [2]): < 5.17
CC50 [3]: > 100000 nM
